Measured values from patent US20060069132A1, “Azolecarboxamide herbicides” (priority 2004, published 2006).

Legend:
barnyardgrass [1] = experiment: Test B pre-/postemergence herbicide test; type: in vivo, Echinochloa crus-galli; conditions: for Barnyardgrass plant response rating: postemergence
How it was run: (§1)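 Herbicidal effect was judged by eye on a 0–100 scale after plants stood 13 to 15 days in the greenhouse following pre- or postemergence treatment with surfactant-containing formulations.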

Surinam grass = experiment: Test B pre-/postemergence herbicide test; type: in vivo, Urochloa decumbens; conditions: for Surinam Grass plant response rating: scale 0 (no effect) to 100 (complete control)
How it was run: (§2)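 Seeds were planted and treated preemergence with compounds formulated in a non-phytotoxic solvent mixture containing surfactant, while plants at the 1- to 4-leaf stage (2 to 18 cm) received postemergence sprays. Flooded paddy plants were grown to the 2-leaf stage. After 13 to 15 days in a greenhouse, injury was visually rated 0–100 against untreated controls.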

cocklebur = experiment: Test B pre-/postemergence herbicide test; type: in vivo, Xanthium strumarium; conditions: for Cocklebur plant response rating: postemergence
How it was run: as §1

corn = experiment: Test B pre-/postemergence herbicide test; type: in vivo, Zea mays; conditions: for Corn plant response rating: postemergence
How it was run: as §2

large crabgrass = experiment: Test B pre-/postemergence herbicide test; type: in vivo, Digitaria sanguinalis; conditions: postemergence
How it was run: as §2

giant foxtail = experiment: Test B pre-/postemergence herbicide test; type: in vivo, Setaria faberi; conditions: for Foxtail, Giant plant response rating: postemergence
How it was run: as §2

lambsquarters = experiment: Test B pre-/postemergence herbicide test; type: in vivo, Chenopodium album; conditions: for Lambsquarters plant response rating: scale 0 (no effect) to 100 (complete control)
How it was run: as §2

morningglory = experiment: Test B pre-/postemergence herbicide test; type: in vivo, Ipomoea coccinea; conditions: for Morningglory plant response rating: scale 0 (no effect) to 100 (complete control)
How it was run: as §1

pigweed = experiment: Test B pre-/postemergence herbicide test; type: in vivo, Amaranthus retroflexus; conditions: for Pigweed plant response rating: scale 0 (no effect) to 100 (complete control)
How it was run: as §2

velvetleaf = experiment: Test B pre-/postemergence herbicide test; type: in vivo, Abutilon theophrasti; conditions: for Velvetleaf plant response rating: scale 0 (no effect) to 100 (complete control)
How it was run: as §2

blackgrass = experiment: Test B postemergence herbicide test; type: in vivo, Alopecurus myosuroides; conditions: postemergence
How it was run: (§3)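 Treated at 2-leaf (paddy) or 1–4-leaf, 2–18 cm (postemergence); greenhouse 13–15 d; visual score vs control, 0 none to 100 complete control; dash = not tested.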

wheat = experiment: Test B postemergence herbicide test; type: in vivo, Triticum aestivum; set-up: key to Wheat plant response rating: 0 = no effect, 100 = complete control
How it was run: (§4)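 After treating 2-leaf paddy plants or 2–18 cm postemergence plants (1 to 4 leaves) with formulated chemical, researchers kept them in a greenhouse for 13–15 days. Effects were judged visually versus controls: 0 indicates none, 100 total control.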

wild oat = experiment: Test B postemergence herbicide test; type: in vivo, Avena fatua; conditions: scale 0 (no effect) to 100 (complete control)
How it was run: as §4

rice [2] = experiment: Test B flooded paddy test; type: in vivo, Oryza sativa; conditions: 1000 g ai/ha, scale 0 to 100 (0 no effect, 100 complete control)
How it was run: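 Visual ratings, 0 (no effect) to 100 (complete control), made versus controls after 13–15 d greenhouse. Paddy plants treated at 2-leaf stage; postemergence plants at 1- to 4-leaf stage, 2–18 cm tall.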

[3] = system: small flower umbrella sedge; experiment: Test B flooded paddy test; type: in vivo, Cyperus difformis; conditions: 1000 g ai/ha, scale 0 to 100 (0 no effect, 100 complete control)
How it was run: as §3

ducksalad [4] = experiment: Test B flooded paddy test; type: in vivo, Heteranthera limosa; conditions: 1000 g ai/ha, scale 0 to 100 (0 no effect, 100 complete control)
How it was run: as §3

barnyardgrass [5] = experiment: Test B flooded paddy test; type: in vivo, Echinochloa crus-galli; conditions: 1000 g ai/ha, scale 0 to 100 (0 no effect, 100 complete control)
How it was run: as §3

rice [6] = experiment: Test C flooded paddy test; type: in vivo, Oryza sativa
How it was run: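 Plants were grown to the 1- to 4-leaf stage (2–18 cm) and then treated postemergence, or grown to the 2-leaf stage for the flooded paddy test. They were held in a greenhouse for 12 to 14 days and then scored by eye against controls, where 0 is no effect and 100 is complete control.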

[7] = system: smallflower umbrella sedge; experiment: Test C flooded paddy test; type: in vivo, Cyperus difformis
ducksalad [8] = experiment: Test C flooded paddy test; type: in vivo, Heteranthera limosa
barnyardgrass [9] = experiment: Test C flooded paddy test; type: in vivo, Echinochloa crus-galli
How it was run: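 Weeds and wheat were sprayed after emergence, at a height of 2 to 18 cm (1–4 leaves), and paddy barnyardgrass was flooded and treated at two leaves. Assessment took place 12–14 days later in the greenhouse on a 0-to-100 visual control scale. A dash means no result was obtained.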

[10] = 125 g ai/ha, 0 is no effect, 100 is complete control, preemergence
[11] = 125 g ai/ha, visual rating, scale 0 (no effect) to 100 (complete control)
[12] = 500 g ai/ha, scale 0 to 100, 0 is no effect, 100 is complete control
[13] = 125 g ai/ha, visual rating, postemergence
[14] = 125 g ai/ha, scale 0 to 100 (0 no effect, 100 complete control)
[15] = 250 g ai/ha, scale of 0 to 100, 0 is no effect, 100 is complete control
[16] = 500 g ai/ha, visual rating after 12 to 14 days, scale 0 to 100 (0 no effect, 100 complete control)

## Cc1nn(C(C)(C)C)nc1C(=O)Nc1cc(C(=O)N(C)C)ccc1F [Compound 378]
Barnyardgrass [1]; [10]
  Plant response rating (0 to 100 scale), Barnyardgrass: 30
Barnyardgrass [1]; [11]
  Barnyardgrass plant response rating: 0
Barnyardgrass [1]; [12]
  Barnyardgrass plant response rating: 0
Surinam grass; [10]
  Plant response rating (0 to 100 scale), Surinam Grass: 0
Surinam grass; [13]
  Surinam Grass plant response rating: 10
Surinam grass; Postemergence, 500 g ai/ha
  Surinam Grass plant response rating: 20
cocklebur; [10]
  Plant response rating (0 to 100 scale), Cocklebur: 0
cocklebur; [11]
  Cocklebur plant response rating: 0
cocklebur; [12]
  Cocklebur plant response rating: 0
corn; [10]
  Plant response rating (0 to 100 scale), Corn: 30
corn; [11]
  Corn plant response rating: 0
corn; [12]
  Corn plant response rating: 10
Large crabgrass; [11]
  Crabgrass, Large plant response rating: 0
Large crabgrass; [12]
  Crabgrass, Large plant response rating: 10
Giant foxtail; [10]
  Plant response rating (0 to 100 scale), Foxtail, Giant: 30
Giant foxtail; [11]
  Foxtail, Giant plant response rating: 0
Giant foxtail; [12]
  Foxtail, Giant plant response rating: 30
lambsquarters; [10]
  Plant response rating (0 to 100 scale), Lambsquarters: 90
lambsquarters; [13]
  Lambsquarters plant response rating: 40
lambsquarters; Postemergence, 500 g ai/ha
  Lambsquarters plant response rating: 70
morningglory; [10]
  Plant response rating (0 to 100 scale), Morningglory: 0
morningglory; [13]
  Morningglory plant response rating: 20
morningglory; Postemergence, 500 g ai/ha
  Morningglory plant response rating: 30
pigweed; [10]
  Plant response rating (0 to 100 scale), Pigweed: 90
pigweed; [13]
  Pigweed plant response rating: 40
pigweed; Postemergence, 500 g ai/ha
  Pigweed plant response rating: 70
velvetleaf; [10]
  Plant response rating (0 to 100 scale), Velvetleaf: 50
velvetleaf; [13]
  Velvetleaf plant response rating: 10
velvetleaf; Postemergence, 500 g ai/ha
  Velvetleaf plant response rating: 40
blackgrass; [11]
  Blackgrass plant response rating: 0
blackgrass; [12]
  Blackgrass plant response rating: 0
wheat; 125 g ai/ha, visual rating, scale 0 (no effect) to 100 (complete control), postemergence
  Wheat plant response rating: 0
wheat; 500 g ai/ha, scale 0 to 100, 0 no effect, 100 complete control, preemergence
  Wheat plant response rating: 100
wheat; Postemergence, 500 g ai/ha, scale 0 (no effect) to 100 (complete control)
  Wheat plant response rating: 0
Wild oat; [13]
  Oat, Wild plant response rating: 0
Wild oat; Postemergence, 500 g ai/ha
  Oat, Wild plant response rating: 20
Rice [2]
  Rice plant response rating: 70
[3]
  Sedge, Umbrella plant response rating: 80
Ducksalad [4]
  Ducksalad plant response rating: 90
Barnyardgrass [5]
  Barnyardgrass plant response rating: 80
Rice [6]; 62 g ai/ha, scale 0 to 100
  Rice plant response rating: 0
Rice [6]; [14]
  Rice plant response rating: 10
Rice [6]; [15]
  Rice plant response rating: 30
Rice [6]; [16]
  Plant response rating, Rice: 60
[7]; 62 g ai/ha, scale 0 to 100
  Sedge, Umbrella plant response rating: 0
[7]; [14]
  Sedge, Umbrella plant response rating: 15
[7]; [15]
  Sedge, Umbrella plant response rating: 55
[7]; [16]
  Plant response rating, Sedge, Umbrella: 80
Ducksalad [8]; 62 g ai/ha, scale 0 to 100
  Ducksalad plant response rating: 0
Ducksalad [8]; [14]
  Ducksalad plant response rating: 0
Ducksalad [8]; [15]
  Ducksalad plant response rating: 20
Ducksalad [8]; [16]
  Plant response rating, Ducksalad: 75
Barnyardgrass [9]; 62 g ai/ha, scale 0 to 100 (0 no effect, 100 complete control)
  Barnyardgrass plant response rating: 0
Barnyardgrass [9]; [14]
  Barnyardgrass plant response rating: 0
Barnyardgrass [9]; [15]
  Barnyardgrass plant response rating: 0
Barnyardgrass [9]; [16]
  Plant response rating, Barnyardgrass: 50
